Experimental findings from US20230339919A1, “BENZO OXYGEN-CONTAINING HETEROCYCLIC COMPOUNDS AND MEDICAL APPLICATION THEREOF” (AB PHARMA LTD., priority 2020, published 2023) are described below.

T1 sequence (O14842 whole entry): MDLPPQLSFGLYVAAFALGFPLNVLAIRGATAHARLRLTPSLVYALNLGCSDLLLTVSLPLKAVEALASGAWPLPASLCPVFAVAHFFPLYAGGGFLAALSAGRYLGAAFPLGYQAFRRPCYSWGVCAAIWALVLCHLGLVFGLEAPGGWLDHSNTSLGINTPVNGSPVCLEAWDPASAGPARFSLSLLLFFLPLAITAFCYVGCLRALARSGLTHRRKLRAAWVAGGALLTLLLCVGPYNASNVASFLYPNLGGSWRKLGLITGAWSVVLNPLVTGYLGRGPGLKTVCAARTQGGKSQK

One assay has as its target T1, GPR40 (Homo sapiens, UniProt O14842).
T1 construct: expressed in transfected cells; host or cells: CHO-K1
Briefly: GPR40 agonist activity, FLIPR calcium assay in CHO-K1/GPR40 cells. It is filed as cell-based. Particulars: GPR40 agonist activity range (EC50), CHO-K1/GPR40 cells; read-out: GPR40 activity. The method, then:
Inoculate CHO-K1/GPR40 cells in 384-well plates at a density of 10,000 cells/well. Cells were incubated at 37° C. for 24 hours in a 5% CO2 incubator. After the experiment, discard the cell culture medium, quickly add […] of 1× FLIPR® Calcium 6 dye containing 2.5 mM/Probenecid to each well and incubate at 37° C. for 2 hours protected from light. For the determination, different concentrations of drug ([…]) were added to the wells and the fluorescence values were read. The fluorescence excitation wavelength was 494 nm and emission wavelength was 516 nm. FLIPR instrument data, EC50 was derived from the formula Y=Bottom+(Top−Bottom)/(1+(EC50/X)^HillSlope).
With `CC(C)S(=O)(=O)Nc1cc(COc2ccc3c(c2)OC[C@H]3CC(=O)O)c2c(c1)OCO2` [IIb-51], the EC50 is more than 0.1 µM. Turning to `O=C(O)C[C@@H]1COc2cc(OCc3cc(C(F)(F)F)cc4c3OC(F)(F)O4)ccc21` [IIb-54], the EC50 fell in the range of 0.01 to 0.1 µM.

`O=C(O)C[C@@H]1COc2cc(OCc3cc(I)cc4c3OCO4)ccc21` [IIb-40]: the EC50 was 0.01 to 0.1 µM. As for `CC(C)(C)C(=O)Nc1cc(COc2ccc3c(c2)OC[C@H]3CC(=O)O)c2c(c1)OCO2` [IIb-50], the EC50 was more than 0.1 µM. For the compound `O=C(O)CC1COc2cc(OCc3c(Br)ccc4c3OCO4)ccc21` (stereo not shown) [IIb-03], the EC50 is more than 0.1 µM. Still for that read-out and setting: in the case of `O=C(O)CC1COc2cc(OCc3cc(Cl)cc4c3OC(F)(F)O4)ccc21` (stereo not shown) [IIb-23] it was 0.01 to 0.1 µM; in that of `CC(C)(C)OC(=O)Nc1cc(COc2ccc3c(c2)OCC3C(F)C(=O)O)c2c(c1)OCO2` (stereo not shown) [IIb-59], 0.01 to 0.1 µM; in that of `O=C(O)CC1COc2cc(OCc3cc(Br)cc4c3OC(F)(F)O4)ccc21` (stereo not shown) [IIb-21], 0.01 to 0.1 µM.

In the case of `O=C(O)CC1COc2cc(OCc3cc(Br)cc4c3OCO4)ccc21` (stereo not shown) [IIb-02], the EC50 is more than 0.1 µM. On the same count and under the same terms, in the case of `CC(C)(C)OC(=O)Nc1cc(COc2ccc3c(c2)CCC3CC(=O)O)c2c(c1)OC(F)(F)O2` (stereo not shown) [IIb-63] it was 0.01 to 0.1 µM. For the compound `O=C(O)CC1(c2ccc(OCc3cc(F)cc4c3OCO4)cc2)OCCO1` [IIb-37], the EC50 was more than 0.1 µM. Take `O=C(O)C[C@@H]1COc2cc(OCc3cc(NC(=O)OC4CCCC4)cc4c3OCO4)ccc21` [IIb-48]: the EC50 lay in the range of 0.01 to 0.1 µM. On the same count and under the same terms, with `O=C(O)CC1COc2cc(OCc3cc(C(F)(F)F)cc4c3OCO4)ccc21` (stereo not shown) [IIb-14] the figure was 0.01 to 0.1 µM; with `COc1cc(COc2ccc3c(c2)OC[C@H]3CC(=O)O)c2c(c1)OCO2` [IIb-45], more than 0.1 µM; with `O=C(O)CC1COc2cc(OCc3cccc4c3OC(F)(F)O4)c(Cl)cc21` (stereo not shown) [IIb-28], more than 0.1 µM. Same read-out and setting: in the case of `CC1(C)Oc2cc(Br)cc(COc3ccc4c(c3)OCC4CC(=O)O)c2O1` (stereo not shown) [IIb-22] it was more than 0.1 µM. In the case of `O=C(O)CC1COc2cc(OCc3c(F)ccc4c3OCO4)ccc21` (stereo not shown) [IIb-13], the EC50 is more than 0.1 µM. In the case of `O=C(O)CC1COc2cc(OCc3cccc4c3OCO4)ccc21` (stereo not shown) [IIb-01], the EC50 was more than 0.1 µM. Same read-out and setting: with `O=C(O)CC1COc2cc(OCc3cc(F)cc4c3OCO4)ccc21` (stereo not shown) [IIb-06] the figure was 0.01 to 0.1 µM. Same read-out and setting: in the case of `O=C(O)CC1COc2cc(OCc3cccc4c3OC(F)(F)O4)c(F)cc21` (stereo not shown) [IIb-29] it was more than 0.1 µM. On the same count and under the same terms, in the case of `O=C(O)CC1CCc2cc(OCc3cc(F)cc4c3OCO4)ccc21` (stereo not shown) [IIb-35] it was 0.01 to 0.1 µM; in that of `Nc1cc(COc2ccc3c(c2)OC[C@H]3CC(=O)O)c2c(c1)OCO2` [IIb-44], more than 0.1 µM; in that of `O=C(O)C(F)C1COc2cc(OCc3cc(F)cc4c3OCO4)ccc21` (stereo not shown) [IIb-57], 0.01 to 0.1 µM. Take `CC1(C)Oc2cccc(COc3ccc4c(c3)OCC4CC(=O)O)c2O1` (stereo not shown) [IIb-20]: the EC50 lay in the range of 0.01 to 0.1 µM. On the same count and under the same terms, with `O=C(O)CC1COc2cc(OCc3ccc(F)c4c3OCO4)ccc21` (stereo not shown) [IIb-12] the figure was more than 0.1 µM; with `O=C(O)CC1COc2cc(OCc3cccc4c3OCCO4)ccc21` (stereo not shown) [IIb-19], more than 0.1 µM. Still for that read-out and setting: in the case of `CC(C)(C)OC(=O)Nc1cc(COc2ccc3c(c2)OC[C@H]3CC(=O)O)c2c(c1)OC(F)(F)O2` [IIb-46] it was less than 0.01 µM; in that of `O=C(O)CC1COc2cc(OCc3cccc4c3OC(F)(F)O4)ccc21` (stereo not shown) [IIb-17], 0.01 to 0.1 µM; in that of `O=C(O)CC1COc2cc(OCc3cc(Cl)cc4c3OCCO4)ccc21` (stereo not shown) [IIb-10], more than 0.1 µM. Still for that read-out and setting: in the case of `CN(C)c1cc(COc2ccc3c(c2)OC[C@H]3CC(=O)O)c2c(c1)OCO2` [IIb-41] it was more than 0.1 µM; in that of `O=C(O)CC1COc2cc(OCc3ccc(Cl)c4c3OC(F)(F)O4)ccc21` (stereo not shown) [IIb-24], more than 0.1 µM; in that of `O=C(O)C[C@@H]1COc2cc(OCc3cc(C(F)(F)F)cc4c3OCO4)ccc21` [IIb-53], 0.01 to 0.1 µM. With `O=C(O)C(F)(F)C1COc2cc(OCc3cc(Cl)cc4c3OCO4)ccc21` (stereo not shown) [IIb-39], the EC50 was more than 0.1 µM. Still for that read-out and setting: in the case of `CC(C)(C)NC(=O)Nc1cc(COc2ccc3c(c2)OC[C@H]3CC(=O)O)c2c(c1)OCO2` [IIb-49] it was more than 0.1 µM; in that of `O=C(O)CC1COc2cc(OCc3ccc(Br)c4c3OCO4)ccc21` (stereo not shown) [IIb-16], more than 0.1 µM. Same read-out and setting: in the case of `O=C(O)C[C@@H]1COc2cc(OCc3cc(F)cc4c3OC(F)(F)O4)ccc21` [IIb-55] it was 0.01 to 0.1 µM; in that of `O=C(O)CC1COc2cc(OCc3c(Br)ccc4c3OCCO4)ccc21` (stereo not shown) [IIb-08], more than 0.1 µM; in that of `O=C(O)C(F)C1COc2cc(OCc3cccc4c3OC(F)(F)O4)ccc21` (stereo not shown) [IIb-33], 0.01 to 0.1 µM. The same measure, in the same setting: in the case of `O=C(O)CC1COc2c1cc(Br)c(OCc1cccc3c1OC(F)(F)O3)c2Br` (stereo not shown) [IIb-27] it was more than 0.1 µM; in that of `CC#CC(CC(=O)O)c1ccc(OCc2cc(NC(=O)OC(C)(C)C)cc3c2OC(F)(F)O3)cc1` (stereo not shown) [IIb-64], 0.01 to 0.1 µM; in that of `O=C(O)C[C@@H]1COc2cc(OCc3cc(OC(F)(F)F)cc4c3OCO4)ccc21` [IIb-52], more than 0.1 µM.

Consider `O=C(O)C(F)(F)C1COc2cc(OCc3cccc4c3OC(F)(F)O4)ccc21` (stereo not shown) [IIb-34], for which the EC50 was more than 0.1 µM.

As for `O=C(O)C(Br)C1COc2cc(OCc3cccc4c3OC(F)(F)O4)ccc21` (stereo not shown) [IIb-30], the EC50 is more than 0.1 µM. On the same count and under the same terms, with `NC(C(=O)O)C1COc2cc(OCc3cccc4c3OC(F)(F)O4)ccc21` (stereo not shown) [IIb-31] the figure was more than 0.1 µM. Turning to `O=C(O)CC1COc2cc(OCc3cc(Br)cc4c3OCCO4)ccc21` (stereo not shown) [IIb-09], the EC50 was more than 0.1 µM.

In the case of `O=C(O)CC1COc2cc(OCc3cccc4c3OC(F)(F)O4)c(Br)cc21` (stereo not shown) [IIb-26], the EC50 was more than 0.1 µM. Same read-out and setting: in the case of `O=C(O)C(O)C1COc2cc(OCc3cccc4c3OC(F)(F)O4)ccc21` (stereo not shown) [IIb-32] it was more than 0.1 µM. Still for that read-out and setting: with `CN(C)c1ccc2c(c1COc1ccc3c(c1)OC[C@H]3CC(=O)O)OCO2` [IIb-42] the figure was more than 0.1 µM.

As to `O=C(O)C(F)C1COc2cc(OCc3cc(Cl)cc4c3OCO4)ccc21` (stereo not shown) [IIb-58], the EC50 was in the range of 0.01 to 0.1 µM. Still for that read-out and setting: with `COC(=O)Nc1cc(COc2ccc3c(c2)OC[C@H]3CC(=O)O)c2c(c1)OCO2` [IIb-47] the figure was more than 0.1 µM. The same measure, in the same setting: in the case of `O=C(O)C[C@@H]1COc2cc(OCc3cc(Cl)cc4c3OC(F)(F)O4)ccc21` [IIb-56] it was 0.01 to 0.1 µM.

Take `O=C(O)CC1COc2cc(OCc3cc(F)cc4c3OCCO4)ccc21` (stereo not shown) [IIb-11]: the EC50 was more than 0.1 µM. Regarding `N#Cc1cc(COc2ccc3c(c2)OCC3CC(=O)O)c2c(c1)OCO2` (stereo not shown) [IIb-15], the EC50 lay in the range of 0.01 to 0.1 µM. Turning to `O=C(O)CC1COc2cc(OCc3cc(Cl)cc4c3OCO4)ccc21` (stereo not shown) [IIb-05], the EC50 lay in the range of 0.01 to 0.1 µM. For the compound `O=C(O)CC1COc2cc(OCc3ccc4c(c3)OCO4)ccc21` (stereo not shown) [IIb-04], the EC50 was 0.01 to 0.1 µM. The same measure, in the same setting: in the case of `Cc1cc(OCCCS(C)(=O)=O)cc(C)c1-c1cc(COc2ccc3c(c2)OC[C@H]3CC(=O)O)c2c(c1)OCO2` [IIb-38] it was 0.01 to 0.1 µM; in that of `O=C(O)CC1CCc2cc(OCc3cccc4c3OC(F)(F)O4)ccc21` (stereo not shown) [IIb-61], 0.01 to 0.1 µM; in that of `CC#CC(CC(=O)O)c1ccc(OCc2cccc3c2OC(F)(F)O3)cc1` (stereo not shown) [IIb-62], 0.01 to 0.1 µM. The same measure, in the same setting: with `O=C(O)C[C@@H]1COc2cc(OCc3cc(F)cc4c3OCO4)ccc21` [IIb-07] the figure was 0.01 to 0.1 µM; with `CC(C)(CC(=O)O)c1ccc(OCc2cc(F)cc3c2OCO3)cc1` [IIb-36], more than 0.1 µM.

The assay is the same for the next values; noted with them: read-out: GPR40 activity (EC50).
In the case of `CC(C)(C)OC(=O)Nc1cc(COc2ccc3c(c2)OC[C@H]3CC(=O)O)c2c(c1)OC(F)(F)O2` [IIb-46], the EC50 was less than 0.01 µM.
